From patent US11638427B2, “Methods and compositions for altering secondary metabolites in plants” (Impello Biosciences, Inc, priority 2020, dated 2023)

How the values were obtained:
[1] = tested on: high-CBD hemp variety Cherry; assay: Low-volume drone foliar applications of MeJA or MDJ on field grown high-CBD hemp, cannabinoid and terpene analysis; type: in vivo, Cannabis spp.; details: about 2 gallons per acre, at harvest; for increase in the ratio of CBD:THC compared to the Control group / alpha bisabolol change compared to the Control group: 7.5 mM; for increase in the ratio of CBD:THC compared to the Control group: morning applications about every 14 days
Description: In previous foliar application experiments, plants were sprayed until the leaves were dripping. In order to assess the plant physiological response to low-volume foliar applications of two jasmonate elicitors, methyl jasmonate (MeJA) and methyl dihydro-jasmonate (MDJ), an outdoor experiment on field grown, high-CBD hemp was designed and performed during the summer of 2019 using an unmanned aerial drone as the application device. A single high-CBD hemp variety, “Cherry” (CBDRx, Longmont, Colo.) was used in an organic field plot in Pueblo, Colo., which was subdivided into four spatially separated quadrants of approximately 0.5 acres each as determined by drone and GPS mapping. Each 0.5-acre quadrant was assigned a treatment group, and the middle area of the entire plot, approximately 1 acre in area, was used as a “control” section of the field. Plants in the Control group received sprays of water and TWEEN®-20 only, identical to the treatment groups except for the exclusion of any jasmonate (i.e., [0 mM] MeJA and MDJ) active ingredients. MeJA and MDJ were applied at approximately 2 gallons per acre. In comparison, previous foliar applications wherein the plant was sprayed until the leaves dripped would equate to between 50-100 gallons per acre.
Treatments were separated into such “morning” and “evening” applications in an attempt to determine if the time of day influenced the plant response to the treatments. The four treatment groups were as follows: TIM=[7.5 mM] MDJ foliar applications in the morning; TIE=[7.5 mM] MDJ foliar applications in the evening; T2M=[7.5 mM] MeJA foliar applications in the morning; T2E [7.5 mM] MeJA foliar applications in the evening. All treatment groups were prepared the day of the application, and all applications were made successively with the same drone device. To reduce potential cross-contamination of the drone sprayer equipment, an acetic acid solution (5%) was run through the applicator equipment between each treatment application and control spray application, followed by plain water as a final rinse.
Plants were planted and allowed to grow in the normal fashion until the onset of flowering, which occurred around Jul. 25, 2019. At that point, foliar applications of the treatment were made approximately every 14 days with adjustments to the schedule as needed to avoid applying treatments on days with high winds, rain, or other suboptimal conditions for drone flight or treatment applications. Approximately every 14 days during the flowering cycle, flower samples from three randomly selected plants in each experimental group were taken, dried, and stored for analytical testing; however, the focus of this study was to determine the effect of the treatment groups versus the control group at harvest. Final flower samples were taken from 10 randomly selected plants in each experimental group on Sep. 12, 2019, labelled accordingly, dried, and sent to a third part commercial cannabis testing lab (Pro Verde, Milford, Mass.) for chemical analysis of the cannabinoids and terpene content individually using liquid chromatography (LC) and headspace gas chromatography (HS-GC), respectively. All samples were harvested on the day of a scheduled treatment prior to treatment.
Statistical analysis of the quantitative terpene data from plant samples taken at harvest was performed using R statistical software and corrected post-hoc using Tukey HSD method. For cannabinoid data from the same plant samples, ANOVA analysis was performed in Microsoft Excel with Tukey HSD post-hoc corrections.

[2] = tested on: seedling mold; assay: Fungal plug growth on jasmonate-infused PDA plates; type: cell-based, Trichoderma ghanense; details: for seedling mold growth: 1 mM, 4.25 mM, 10 mM in PDA, 72 hours post inoculation
Description: (§1) MDJ (TCI, CAS No.: 24851-98-7) and CJ were infused into potato dextrose agar (PDA, VWR Cat No.: 90003-494) petri dishes (100×15 mm VWR, Cat No: 25384-094) at concentrations ranging from 1 mM, 4.25 mM, and 10 mM. Each treatment was prepared using a technical grade stock solution of pure chemical (CJ or MDJ) diluted with TWEEN®-20 (VWR, CAS No.: […]). Culturable oyster mushroom and seedling mold served to create fungal mycelial plugs using a sterile 1 mL pipette tip (Eppendorf, Cat No.: 022491458) held upside down. The tips were used to make circle excisions (i.e., fungal plugs) from a mycelial mat grown on PDA with no biochemical infusions. Fungal pugs were then transferred to PDA infused with varying concentrations of CJ or MDJ, and control plates (no CJ or MDJ infusion) to monitor fungal growth at room temperature over time.
To compare the efficacy of MDJ and MeJA at inhibiting the same seedling mold as used in the experiment above, a second experiment was conducted using PDA plates infused with either MDJ or MeJA at different concentrations. All plates were generated and inoculated as described above and incubated at room temperature under identical conditions. Shown in FIGS. 9A-9C are plates of seedling mold 72 hours post fungal inoculation. Control plates are shown on the top row, followed by concentrations of MeJA (left) and MDJ (right) in duplicate at 1 mM (FIG. 9A), 4.25 mM (FIG. 9B), and 10 mM (FIG. 9C). […] Subsequent sequence analysis identified the “seedling mold” as Trichoderma ghanense.

[3] = tested on: Diaporthe rudis; assay: Mold growth on jasmonate-infused plates, mold 3 isolated from avocado; type: cell-based; details: various concentrations in plates
Description: as §1
(§2) Based on the above results in Cannabis spp., additional fungi from various crops was sampled and tested. Plates comprising various concentrations of MDJ or MJ were prepared as described above.

[4] = tested on: Sunrise Genetics' F2 variety; assay: MeJA vs MDJ weekly foliar spray, terpene analysis; type: in vivo, Cannabis spp.; details: for eucalyptol / guaiol / α-bisabolol: 4.25 mM or 7.5 mM MDJ, or 7.5 mM MeJA; for D-Limonene / Linalool / cis-B-ocimene: all applications (4.25 mM and 7.5 mM)
Description: (§3) To directly compare the efficacy of MeJA and MDJ, MeJA and MDJ were applied as a foliar spray once per week at either 4.25 mM or 7.5 mM concentrations to two high-CBD cannabis varieties. Clones from CBDRx Cherry variety and Sunrise Genetics' F2 variety were transplanted into 1-gallon pots with Red's soil and put into vegetative light cycle (18L/6D) on 4/12/21. All plants had two weeks in vegetative light cycle and were moved to flowering light cycle (12L/12D) on 4/26/21 for six weeks. Foliar applications started in week three of growth, [at flower initiation?]. Plants were then moved to a flowering light cycle. Each treatment group comprises three plants, including the control. Throughout the growing period, all plants were watered with JACK'S NUTRIENTS®. Plants were harvested on 6/7/21.
(§4) Treatments: Each concentration was prepared from a one molar stock solution with TWEEN®-20. Sprays were prepared weekly and diluted with RO water. Each plant was sprayed till dripping, each receiving approximately 75-100 ml.

[5] = tested on: CBDRx Cherry variety; assay: MeJA vs MDJ weekly foliar spray, terpene analysis; type: in vivo, Cannabis spp.; details: 4.25 mM or 7.5 mM weekly foliar spray
Description: as §3, §4

[6] = tested on: Cladosporium cladosporioides; assay: Mold growth on jasmonate-infused plates, mold isolated from tomato; type: cell-based; details: various concentrations in plates
Description: as §1, §2

[7] = 4.25 mM or 7.5 mM weekly foliar spray

CCCCCC1C(=O)CCC1CC(=O)OC (stereo not shown) [MDJ, methyl dihydrojasmonate]
increase in the ratio of CBD:THC compared to the Control group [1]: 2.53%
alpha bisabolol change compared to the Control group [1]: 17.2%
alpha-humulene increase compared to the Control group ([1]; Treatment 1, 7.5 mM): 3.15%
beta-caryophyllene increase compared to the Control group ([1]; Treatment 1, 7.5 mM): 3.3%
guaiol increase compared to the Control group ([1]; Treatment 1, 7.5 mM): 5.66%
trans-nerolidol increase compared to the Control group ([1]; Treatment 1, 7.5 mM): 66.66%
seedling mold growth [2]: inhibited
seedling mold growth compared to control ([2]; all concentrations (1 mM, 4.25 mM, 10 mM) in PDA, 72 hours and 10 days): showed inhibition
efficacy at inhibiting seedling mold, MDJ compared with MeJA ([2]; at the 1 mM concentration, 72 hours): more effective
growth of mold isolated from avocado (mold 3) [3]: effective at preventing the growth
eucalyptol [4]: Significant increases
guaiol [4]: Significant increases
α-bisabolol [4]: Significant increases
camphene [4, 7]: significantly lowered
p-pinene [4, 7]: significantly lowered
total terpene content [4, 7]: significantly lowered
α-pinene [4, 7]: significantly lowered
β-myrcene content [4, 7]: significantly lowered
D-Limonene [4]: significantly decreased
Linalool [4]: significantly increased
cis-B-ocimene [4]: significantly decreased
camphene [5]: significantly lowered
total terpene content [5]: significantly lowered
α-pinene [5]: significantly lowered
β-myrcene content [5]: significantly lowered
β-pinene [5]: significantly lowered
growth of mold isolated from tomato [6]: effective at preventing the growth

CC/C=C\C[C@H]1C(=O)CC[C@@H]1CC(=O)OC [MeJA, Methyl Jasmonate]
increase in the ratio of CBD:THC compared to the Control group [1]: 1.76%
alpha bisabolol change compared to the Control group [1]: decreased
seedling mold growth [2]: inhibited
growth of mold isolated from avocado (mold 3) [3]: effective at preventing the growth
eucalyptol [4]: Significant increases
guaiol [4]: Significant increases
α-bisabolol [4]: Significant increases
D-Limonene [4]: significantly decreased
Linalool [4]: significantly increased
cis-B-ocimene [4]: significantly decreased
β-myrcene, α-pinene, camphene, β-pinene and total terpene content ([4]; only with the higher concentration of 7.5 mM): significant reduction
camphene [5]: neither concentration of MeJA significantly altered
total terpene content [5]: neither concentration of MeJA significantly altered
α-pinene [5]: neither concentration of MeJA significantly altered
β-pinene [5]: neither concentration of MeJA significantly altered
growth of mold isolated from tomato [6]: effective at preventing the growth
